The values that follow come from patent publication US11633378B2, “Methods and compositions for delivering mycophenolic acid active agents to non-human mammals” (OKAVA PHARMACEUTICALS, INC., priority 2017, dated 2023).

A short description of this data set: Study 1: single dose cross-over pharmacokinetics, oral vs intracolonic Na.MPA. On the set-up: species or system male beagle dogs. Conditions: dog, in vivo. As for the experimental part: Two single dose cross-over studies were conducted using a canine model (male beagle dogs) to evaluate the potential of an enteric coated-extended release sodium mycophenolate formulation (“EC-ER-Na.MP”). In a first cross-over study, the pharmacokinetics of MPA and its metabolites (MPAG and AcMPAG) following oral dosing of 180 mg of EC-Na.MPA was compared with intracolonic (IC) administration of Na.MPA. In a second cross-over study, 270 mg of an EC-ER-Na.MPA formulation was administered in the both fed and fasted states and pharmacokinetics were compared with oral administration of 10 mg/kg MMF in the fasted state. Both studies were conducted by Absorption Systems (San Diego, Calif.).
Study 1: For three days prior to IC dosing, dogs (n=5) were offered a soft diet consisting of canned wet food (Pedigree® Choice Cuts). Otherwise, the dogs were offered their standard diet (LabDiet 5006 laboratory canine diet). Prior to each dosing event, the dogs were fasted for 12 hours prior to dosing until 4 hours post-dose, when food was returned. Animals had free access to water throughout the study. Prior to IC dosing, each dog was given a non-stimulant enema approximately 1 hour prior to dosing to remove feces from the colon. Prior to PO dosing, each dog (n=5) was pre-treated with an intramuscular dose of pentagastrin (6 μg/kg) approximately 30 minutes prior to dosing. Capsules were administered by placement in the back of the throat followed by a 10 mL flush with water.
Each dog received a total dose of 180 mg of MPA for each dose. For IC dosing, MPA was delivered as a solution via an endoscope, and for PO dosing each dog received a single Myfortic® 180 mg enteric coated capsule. Following administration, blood samples were collected up to 24 hours post-dose. Plasma concentrations of MPA, MPAG, and AcMPAG were determined with a qualified LC-MS/MS method, and pharmacokinetic parameters were determined with WinNonlin v.6.4 software.

Where two headings read alike, the source gives them in different places.

Turning to `COc1c(C)c2c(c(O)c1C/C=C(\C)CCC(=O)O)C(=O)OC2` [Na•MPA, sodium mycophenolate], the “MPA:metabolite ratios compared with oral MMF or enteric-coated Na.MPA” value is “higher MPA:metabolite ratios”. Further, where the note is “male beagle dogs, plasma, ORAL 180 mg (Myfortic enteric coated capsule), single dose, fasted, read-out: MPA MRTlast”, the MRT last was 2.86 h. For the same compound, where the note is “male, beagle, 180 mg”, the AUC(0-inf) (usually the area under the concentration-time curve extrapolated to infinity) was found to be 31900 ng·h/mL; the AUC(0-t) – broadly, exposure summed from dosing to a finite time, without extrapolation to infinity – worked out at 31000 ng·h/mL; the “MPA Cmax” value amounted to 29460 ng/mL; the “MPA t1/2” value amounted to 5.55 h. Further, for the setting “male, beagle, 180 mg”, the “MPA/AcMPAG Ratio (AUClast)” value amounted to 171.19; the “MPA/MPAG Ratio (AUC∞)” value is given as 2.45; the MRT last amounted to 2.76 h; the Tmax (as a rule, the time from dosing to the highest level) stood at 0.23 h. In addition, under “male, beagle, po, 180 mg”, the AUC(0-inf) came out at 45700 ng·h/mL, the AUC(0-t) turned out to be 36400 ng·h/mL, the “MPA Cmax” value is recorded as 27320 ng/mL and the “MPA t1/2” value turned out to be 4.49 h. Further, where the note is “male, beagle, po, 180 mg”, the “MPA/AcMPAG Ratio (AUClast)” value turned out to be 88.40, the “MPA/MPAG Ratio (AUClast)” value is on record as 1.42, the “MPA/MPAG Ratio (AUC∞)” value is on record as 1.29 and the Tmax came to 1 h.

Consider `COc1c(C)c2c(c(O)c1C/C=C(\C)CCC(=O)O)C(=O)OC2` [MPA, Mycophenolic acid], for which, under “male, beagle, 180 mg”, the highest level (Cmax) was 29500 ± 12600 ng/mL; the “MPA Cmax” value is given as 29460 ng/mL; the half-life – broadly, how long it takes for the measured level to halve – was 5.55 ± 1.77 h. Moreover, for the setting “male, beagle, po, 180 mg”, the highest level (Cmax) was 27300 ± 12000 ng/mL, the “MPA Cmax” value was 27320 ng/mL and the half-life is 4.49 h.
